# Data reported in US11767316B2, “Non-fused thiophene derivatives and their uses” (ENYO PHARMA, priority 2018, dated 2023).
# Target: T1, CISD2 Gene Product (NAF-1) (Homo sapiens, UniProt Q8N5K1)
# T1 sequence (Q8N5K1 57-135 limits assumed): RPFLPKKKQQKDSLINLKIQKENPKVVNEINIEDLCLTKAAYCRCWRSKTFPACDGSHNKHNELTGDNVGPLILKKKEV
# Assay: Stability of Fe-S cluster binding of purified NEET protein (absorbance 458 nm), NAF-1
# Assay type: biochemical
# Description: The modulator effect on the NEET proteins encoded by human CISD1, CISD2, and CISD3 genes by the compounds of the invention has been tested and is reported below. Particularly, the biochemical function of the NEET proteins is measured by the stability of Fe—S cluster binding of the purified NEET proteins.
# The Fe—S cluster binding capacity of NEET proteins is known to be coordinated by four amino-acids in a stretch of 16 (three Cysteine and one Histidine). As the lability of the Fe—S cluster of NEET proteins is sensitive to the environment, cluster stability measurements are one of the measures of interactions of NEET proteins with small molecules and compounds. NEET protein/2Fe-2S cluster stability can be assessed by monitoring the decay in absorbance of its characteristic 458-nm peak (characteristic of the oxidized 2Fe-2S cluster) over time. Each NEET protein (mitoNEET, NAF-1 and Miner 2) was tested for its Fe—S binding in the absence or presence of a compound according to the invention (see table 3 below). […]
# At pH 6, all the three NEET proteins (mitoNEET, NAF-1 and Miner 2) have a characteristic rate of loss of the bound Fe—S cluster that can be measured by the decrease of absorbance at wavelength 458 nm over time, using a spectrophotometer. […]
# A reaction mix containing DMSO diluted in the Bis-Tris Buffer with or without a compound of the invention was prepared. […] The absorbance at wavelength 458 nm was taken at 5 minutes intervals at 37° C. with a spectrofluorimeter. […]
# In addition to time monitoring, residual bound Fe—S cluster to NEET protein was measured at the final point of the spectrometry assay for each Test sample and compared to the Control sample data (in parenthesis table 3). This residual binding is measured by the differential percentage between the absorbance 458 nm at time zero and the absorbance 458 nm at the end of the experiment (i.e. respectively 500 or 180 minutes as described hereabove), showing the percentage of NEET protein still able to bind a Fe—S cluster. […]
compound,measurement,setting,value
O=C(Nc1scc(C2CCc3ccccc3C2)c1C(=O)O)c1ccccc1 (stereo not drawn) [#16],Time (in minutes) to achieve 50% loss of bound cluster (Absorbance 458 nm),"NAF-1 20 μM, compound 60 μM, pH 6, 37° C., vehicle control 310",35 (310) minutes
same,Residual cluster bound at end of experiment (Percentage Absorbance 458 nm at time zero),"NAF-1, end of experiment 500 minutes, compound 60 μM, pH 6, vehicle control 3%",4% (3%)
same,Stabiliser or destabiliser of NEET protein/Fe-S cluster binding,"NAF-1, destabiliser = time to 50% cluster loss decreased by more than 25% vs control",destabilisers
